Results reported in publication PMC7019903 (Viruses, 2020).
pEC50: −log10 of the molar value. Like-named read-outs stand apart in the source and are kept apart here.

Tests used:
[1] = system: Hantaan (HTNV) (strain 76–118); assay: microbe, parasite or virus in culture; format: cell-based, Hantaan virus; settings: for pEC50: read-out: HTNV EC50
[2] = in vitro; settings: Mesocricetus auratus (hamster)
[3] = in vitro; settings: African green monkey
[4] = in vitro; settings: Cercopithecus aethiops (monkey)
[5] = in vitro; settings: Bos taurus (cattle)
[6] = in vitro; settings: human
[7] = system: HTNV; format: cell-based, Hantaan virus
[8] = Orthohantavirus hantanense, Vero C1008, 168 h

Structure (SMILES)	pEC50 [1, 8]	CC50 [2] [µM]	CC50 [3] [µM]	CC50 [4] [µM]	CC50 [5] [µM]	CC50 [6] [µM]	melting point [°C]	Selectivity Index [1]	pEC50 [1]	effect on viral titer (result in words) [7]	effect on viral titer (result in words) ([7]; 50 µM)	reduction of viral titer [7] [log10]
Cc1ccc(C(=O)Nc2ccc(-n3nnc4cc(Cl)c(Cl)cc43)cc2)cc1 [1f]	< 4.52	≥ 100	> 30	–	–	–	–	–	–	–	–	–
CCNC(=O)Nc1ccc(-n2nc3ccccc3n2)cc1 [3k]	< 4.52	> 100	> 30	> 100	> 100	–	–	–	–	–	–	–
CCNC(=O)Nc1ccc(-n2nc3cc(Cl)c(Cl)cc3n2)cc1 [2k]	4.59	> 100	> 30	–	–	–	–	–	–	–	–	–
Nc1ccc(-n2nnc3cc(Cl)c(Cl)cc32)cc1 [1a]	< 4.52	> 100	> 30	–	–	≥ 100	–	–	–	–	–	–
COc1cc(C(=O)Nc2ccc(-n3nc4cc(C)c(C)cc4n3)cc2)cc(OC)c1OC [4j, N-(4-(5,6-dimethyl-2H-benzo[d][1,2,3]triazol-2-yl)phenyl)-3,4,5-trimethoxybenzamide]	< 4.52	> 100	> 30	> 100	> 100	–	272 to 273	–	–	–	–	–
CCCNC(=O)Nc1ccc(-n2nc3cc(Cl)c(Cl)cc3n2)cc1 [2l]	≥ 5.30	40	30	–	–	–	–	6	5.30	significant reduction of viral titer	–	–
Cc1ccc(C(=O)Nc2ccc(-n3nc4cc(C)c(C)cc4n3)cc2)cc1 [4f, N-(4-(5,6-dimethyl-2H-benzo[d][1,2,3]triazol-2-yl)phenyl)-4-methylbenzamide]	< 4.52	> 100	> 30	> 100	> 100	> 100	295 to 296	–	–	–	–	–
CCCCNC(=O)Nc1ccc(-n2nc3ccccc3n2)cc1 [3m]	< 4.52	> 100	> 30	> 100	> 100	> 100	–	–	–	–	–	–
O=C(Nc1ccc(-n2nc3cc(Cl)c(Cl)cc3n2)cc1)c1ccc(Cl)cc1 [2g]	< 4.52	> 100	> 30	95	–	–	–	–	–	–	–	–
COc1cc(C(=O)Nc2ccc(-n3nc4ccccc4n3)cc2)cc(OC)c1OC [3j, N-(4-(2H-benzo[d][1,2,3]triazol-2-yl)phenyl)-3,4,5-trimethoxybenzamide]	< 4.52	> 100	> 30	> 100	> 100	> 100	227 to 229	–	–	–	–	–
NC(=O)c1ncn([C@@H]2O[C@H](CO)[C@@H](O)[C@H]2O)n1 [RBV, Ribavirin, reference compound]	4.43	–	> 100	–	–	–	–	> 2	–	–	significant decline in viral titer	–
CCCCNC(=O)Nc1ccc(-n2nc3cc(Cl)c(Cl)cc3n2)cc1 [2m]	< 4.52	> 100	> 30	95	–	–	–	–	–	–	–	–
CC(=O)Nc1ccc(-n2nc3cc(Cl)c(Cl)cc3n2)cc1 [2b]	< 4.52	> 100	> 30	–	–	–	–	–	–	–	–	–
CCCNC(=O)Nc1ccc(-n2nc3ccccc3n2)cc1 [3l]	< 4.52	> 100	> 30	> 100	> 100	> 100	–	–	–	–	–	–
CCCC(=O)N(C(=O)CCC)c1ccc(-n2nnc3cc(Cl)c(Cl)cc32)cc1 [1e]	< 4.60	16	25	–	–	–	–	–	–	–	–	–
O=C(Nc1ccc(-n2nnc3cc(Cl)c(Cl)cc32)cc1)c1ccc(Cl)cc1 [1g]	≤ 4.52	> 100	> 30	≥ 100	–	–	–	–	–	–	–	–
CCC(=O)N(C(=O)CC)c1ccc(-n2nc3cc(Cl)c(Cl)cc3n2)cc1 [2d]	< 4.52	26	> 30	≥ 100	73	–	–	–	–	–	–	–
O=C(Nc1ccc(-n2nnc3cc(Cl)c(Cl)cc32)cc1)c1ccc([N+](=O)[O-])cc1 [1h]	4.68	96	> 30	–	–	–	–	–	–	–	–	–

Structure (SMILES)	pEC50 [1, 8]	CC50 [2] [µM]	CC50 [3] [µM]	CC50 [4] [µM]	CC50 [5] [µM]	CC50 [6] [µM]	melting point [°C]	Selectivity Index [1]	pEC50 [1]	effect on viral titer (result in words) [7]	effect on viral titer (result in words) ([7]; 50 µM)	reduction of viral titer [7] [log10]
CCCC(=O)N(C(=O)CCC)c1ccc(-n2nc3cc(Cl)c(Cl)cc3n2)cc1 [2e]	< 4.52	62	> 30	≥ 100	–	–	–	–	–	–	–	–
CCCCNC(=O)Nc1ccc(-n2nc3cc(C)c(C)cc3n2)cc1 [4m]	< 4.52	> 100	> 30	> 100	> 100	> 100	–	–	–	–	–	–
Cc1ccc(C(=O)Nc2ccc(-n3nc4ccccc4n3)cc2)cc1 [3f, N-(4-(2H-benzo[d][1,2,3]triazol-2-yl)phenyl)-4-methylbenzamide]	< 4.52	> 100	> 30	> 100	> 100	> 100	266 to 268	–	–	–	–	–
O=C(Nc1ccc(-n2nc3cc(Cl)c(Cl)cc3n2)cc1)c1ccc([N+](=O)[O-])cc1 [2h]	< 4.52	> 100	> 30	–	–	–	–	–	–	–	–	–
COc1cc(C(=O)Nc2ccc(-n3nnc4cc(Cl)c(Cl)cc43)cc2)cc(OC)c1OC [1j]	< 4.52	> 100	> 30	–	–	–	–	–	–	–	–	–
COc1cc(C(=O)Nc2ccc(-n3nc4cc(Cl)c(Cl)cc4n3)cc2)cc(OC)c1OC [2j]	≥ 5.30	35	> 30	–	–	–	–	> 7.5	5.40	significant reduction of viral titer	–	2.14
CCC(=O)Nc1ccc(-n2nnc3cc(Cl)c(Cl)cc32)cc1 [1c]	< 4.70	54	20	–	≥ 100	–	–	–	–	–	–	–
CCC(=O)Nc1ccc(-n2nc3cc(Cl)c(Cl)cc3n2)cc1 [2c]	< 4.52	> 100	> 30	–	–	–	–	–	–	–	–	–
Nc1ccc(-n2nc3cc(Cl)c(Cl)cc3n2)cc1 [2a]	< 4.52	> 100	> 30	≥ 100	–	–	–	–	–	–	–	–
COc1ccc(C(=O)Nc2ccc(-n3nnc4cc(Cl)c(Cl)cc43)cc2)cc1 [1i]	< 4.52	> 100	> 30	–	–	–	–	–	–	–	–	–
COc1ccc(C(=O)Nc2ccc(-n3nc4cc(Cl)c(Cl)cc4n3)cc2)cc1 [2i]	< 4.52	> 100	> 30	–	–	≥ 100	–	–	–	–	–	–
CCNC(=O)Nc1ccc(-n2nc3cc(C)c(C)cc3n2)cc1 [4k]	< 4.52	> 100	> 30	> 100	> 100	> 100	–	–	–	–	–	–
Cc1ccc(C(=O)Nc2ccc(-n3nc4cc(Cl)c(Cl)cc4n3)cc2)cc1 [2f]	4.66	> 100	> 30	–	–	–	–	–	–	–	–	–
CCCNC(=O)Nc1ccc(-n2nc3cc(C)c(C)cc3n2)cc1 [4l]	< 4.52	> 100	> 30	> 100	> 100	> 100	–	–	–	–	–	–
Cc1cc2nn(-c3ccc(NC(=O)NC4CCCCC4)cc3)nc2cc1C [4n]	< 4.52	> 100	> 30	95	> 100	> 100	–	–	–	–	–	–
CC(=O)Nc1ccc(-n2nnc3cc(Cl)c(Cl)cc32)cc1 [1b]	< 4.70	53	20	–	–	–	–	–	–	–	–	–
O=C(Nc1ccc(-n2nc3cc(Cl)c(Cl)cc3n2)cc1)NC1CCCCC1 [2n]	≥ 5.30	71	> 30	–	–	–	–	> 7.5	5.40	significant reduction of viral titer	–	–
O=C(Nc1ccc(-n2nc3ccccc3n2)cc1)NC1CCCCC1 [3n]	< 4.52	> 100	> 30	95	> 100	> 100	–	–	–	–	–	–
